Data reported in ChEMBL document CHEMBL3044787, “Carboxylesterase of the Rice Stem Borer, Chilo suppressalis WALKER (Lepidoptera: Pyralidae), Responsible for Fenitrothion Resistance as a Sequestering Protein” (J Pestic Sci, 1996).
Values belong to the compound of their own block, whether it stands above or below them.

How the values were obtained:
[1] = Binding affinity to carboxylesterase in organophosphate-resistant Chilo suppressalis (rice stem borer) midgut soluble fraction assessed as inhibition of [14C]fenitroxon-sequestering activity at 10 umol/ml; settings: probe [14C]fenitroxon
Haemolymph [2] = assay: Drug uptake in haemolymph of organophosphate-resistant Chilo suppressalis (rice stem borer) fifth-instar larvae assessed per mg protein by liquid scintillation counting; type: ADME
Carboxylesterase = biological target: T1, Carboxylesterase (Loxostege sticticalis, UniProt B3TNN2); assay: Inhibition of carboxylesterase major isoform in organophosphate-resistant Chilo suppressalis (rice stem borer) midgut soluble fraction at 15 ng
T1 sequence (B3TNN2 whole entry): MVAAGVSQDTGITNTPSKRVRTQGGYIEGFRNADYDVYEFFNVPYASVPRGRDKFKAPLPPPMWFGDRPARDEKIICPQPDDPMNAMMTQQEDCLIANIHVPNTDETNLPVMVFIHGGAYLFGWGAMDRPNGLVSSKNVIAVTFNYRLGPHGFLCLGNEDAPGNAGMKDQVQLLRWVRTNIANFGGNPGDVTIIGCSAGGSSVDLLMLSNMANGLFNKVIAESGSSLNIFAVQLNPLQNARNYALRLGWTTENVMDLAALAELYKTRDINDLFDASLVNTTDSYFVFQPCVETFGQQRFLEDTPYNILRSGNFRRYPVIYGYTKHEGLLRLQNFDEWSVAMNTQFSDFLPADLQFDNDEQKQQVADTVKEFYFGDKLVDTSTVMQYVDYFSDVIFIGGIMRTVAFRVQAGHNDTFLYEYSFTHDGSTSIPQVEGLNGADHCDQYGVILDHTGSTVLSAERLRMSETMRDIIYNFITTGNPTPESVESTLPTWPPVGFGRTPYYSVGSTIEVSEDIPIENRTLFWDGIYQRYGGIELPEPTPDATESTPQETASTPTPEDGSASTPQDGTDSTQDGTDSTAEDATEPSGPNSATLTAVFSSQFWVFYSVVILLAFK

Haemolymph [3] = assay: Drug uptake in haemolymph of wild-type Chilo suppressalis (rice stem borer) fifth-instar larvae assessed per mg protein by liquid scintillation counting; type: ADME
Midgut [4] = assay: Drug uptake in midgut of wild-type Chilo suppressalis (rice stem borer) fifth-instar larvae assessed per mg protein by liquid scintillation counting; type: ADME, tissue-based
[5] = Drug uptake in cuticle/muscle of wild-type Chilo suppressalis (rice stem borer) fifth-instar larvae assessed per mg protein by liquid scintillation counting; type: ADME
Malpighian tubule [6] = assay: Drug uptake in Malpighian tubules of wild-type Chilo suppressalis (rice stem borer) fifth-instar larvae assessed per mg protein by liquid scintillation counting; type: ADME
Malpighian tubule [7] = assay: Drug uptake in Malpighian tubules of organophosphate-resistant Chilo suppressalis (rice stem borer) fifth-instar larvae assessed per mg protein by liquid scintillation counting; type: ADME
Midgut [8] = assay: Drug uptake in midgut of organophosphate-resistant Chilo suppressalis (rice stem borer) fifth-instar larvae assessed per mg protein by liquid scintillation counting; type: ADME, tissue-based
Fat body [9] = assay: Drug uptake in fat body of organophosphate-resistant Chilo suppressalis (rice stem borer) fifth-instar larvae assessed per mg protein by liquid scintillation counting; type: ADME
Fat body [10] = assay: Drug uptake in fat body of wild-type Chilo suppressalis (rice stem borer) fifth-instar larvae assessed per mg protein by liquid scintillation counting; type: ADME
[11] = Drug uptake in cuticle/muscle of organophosphate-resistant Chilo suppressalis (rice stem borer) fifth-instar larvae assessed per mg protein by liquid scintillation counting; type: ADME
Chilo suppressalis [12] = assay: Insecticidal activity against organophosphate-resistant Chilo suppressalis (rice stem borer) fifth-instar larvae assessed as mortality after 24 hr; type: functional
Chilo suppressalis [13] = assay: Insecticidal activity against wild-type Chilo suppressalis (rice stem borer) fifth-instar larvae assessed as mortality after 24 hr; type: functional

inhibition at 10 umol/ml [1]: 61.8%
SMILES: CC(=O)Oc1cccc2ccccc12 [ALPHA-NAPHTHYLACETATE]

SMILES: COP(=O)(OC)Oc1ccc([N+](=O)[O-])c(C)c1 [FENITROXON]
Drug uptake (Haemolymph [2]): 0.1 nmol/h
inhibition (INH) (Carboxylesterase): Active
Drug uptake (Haemolymph [3]): 0.042 nmol/h
Drug uptake (Midgut [4]): 0.22 nmol/h
Drug uptake [5]: 0.044 nmol/h
Drug uptake (Malpighian tubule [6]): 0.24 nmol/h
Drug uptake (Malpighian tubule [7]): 2.1 nmol/h
Drug uptake (Midgut [8]): 1.5 nmol/h
Drug uptake (Fat body [9]): 0.35 nmol/h
Drug uptake (Fat body [10]): 0.052 nmol/h
Drug uptake [11]: 0.24 nmol/h

SMILES: COP(=S)(OC)Oc1ccc([N+](=O)[O-])c(C)c1 [FENITROTHION]
LD50 (Chilo suppressalis [12]): 77.3 mg/kg
LD50 (Chilo suppressalis [13]): 2.42 mg/kg
